Legend:
[1] = rats, cited from earlier work
[2] = tested on: Immortalized lymphoblastoid cells (BC1 LCL); assay: ATP assay (ATP dependent luciferase reaction, low glucose); assay type: cell-based; settings: 10 µM, 72 h
From the text: Electrons donated from the citric acid cycle in form of NADH are transferred between complexes I, II and III of the respiratory chain. In this process mitochondrial membrane potential is generated through proton pumps in the mitochondrial inner membrane. This electrochemical gradient across the inner mitochondrial membrane is used in healthy cells to provide the energy to drive mitochondrial ATP production. Consequently, cellular ATP levels are a good indicator of mitochondrial function. […] A potential inhibition of mitochondrial respiration can be detected through special growth conditions in vitro. […]
Experimental Procedure: This assay was therefore performed in the absence of glucose in the medium. […] The number of cells was counted and after brief washing in PBS and collecting through centrifugation (5 min; 200 x g) the cells were lysed in a volume of 0.5 ml lysis solution (4 mM EDTA, 0.2% Triton X-100) for 15 min.on ice and 10 µl of lysate was added into a white 96 well plate. […] The reaction was started by addition of 100 µl reaction mix (300 µM D-Luciferin, 5 µg/ml firefly luciferase, 75 µM DTT, 25 mM HEPES, 6.25 mM MgCl2, 625 µM EDTA and 1 mg/ml BSA) and the luminescence signal was quantified in a multimode plate reader (Tecan M1000 plate reader; luminescence integration time: 100 ms). […]

[3] = Cytotoxicity assay (WST-1); assay type: cell-based, human; settings: human, hepg2 cells, Hep-G2 cells, 24 hours exposure, read-out: TC50
From the text: This assay investigates cytotoxicity which is defined as the cell-killing property of a chemical compound, independent from the mechanisms of cell death. The HepG2 hepatoblastoma cell line is one of the most common human cell lines for hepatotoxicity studies. […] This assay measures metabolic activity of living cells using the WST-1 cell proliferation reagent (Roche Diagnostics). The tetrazolium salt WST-1 is cleaved to water soluble formazan by cellular enzymes. An expansion in the number of viable cells results in an increase in the overall activity of mitochondrial dehydrogenases in the sample. This augmentation in enzyme activity leads to an increase in the amount of formazan dye formed, which directly correlates to the number of metabolically active cells in the culture. The formazan dye produced by metabolically active cells is directly quantified in a scanning multiwell spectrophotometer by measuring the absorbance of the formazan dye solution between 420 and 480 nm. Healthy HepG2 cells, when maintained in culture, continuously divide and multiply over time. A toxic chemical, regardless of site and mechanism of action, will interfere with this process and result in the reduction of the growth rate reflected in the cell number.
Experimental Procedure: Hep-G2 cells are seeded into a 96-well microplate and maintained in culture for 24 hours. They are then exposed to the test compound over a range of eight concentrations. After 24 hours exposure, the cells are incubated in presence of reagent WST-1 for 30 min before measuring the absorbance of the formazan dye formed. Cytotoxicity is expressed as a concentration dependent reduction of the conversion formazan dye formation due to a decrease in cell proliferation as compared to untreated cells. The TC50 (Toxic Concentration 50%), is defined as the concentration of tested compound required to reduce the cellular viability by 50% relative to the control culture. The lower the TC50 value, the higher is the cytotoxic potential of the test compound. […]

[4] = oral dose of 10 mg/kg, Torii et al.

COC1=C(OC)C(=O)C(CCCCCCCCCCO)=C(C)C1=O [Compound IA, Idebenone]
brain- to-plasma ratio ([1]; oral 100 mg/kg, Nagai et al): 1-2%
levels in the brain of total idebenone (including metabolites) [1, 4]: 10 ng/mL
plasma levels of total idebenone (including metabolites, by radioactivity) [1, 4]: approximately 1000 ng/ml

COC1=C(OC)C(=O)C(CCCCCCCCCC(C)(C)O)=C(C)C1=O [Compound IC]
ATP levels [2]: 63%
CC50 at 24 h [3]: 71.9 µM

CCCCCCCCCCCC1=C(O)C(=O)C=C(O)C1=O [Compound IE, Embelin]
ATP levels [2]: 95%

— EP2605769B1, “BENZOQUINONE DERIVATIVES FOR THE TREATMENT OF MITCHONDRIAL EYE DISEASES” (Santhera Pharmaceuticals (Schweiz) AG, priority 2010, dated 2012)
